Assay results as given in ChEMBL document CHEMBL5321218, “Bifunctional degraders of cyclin dependent kinase 9 (CDK9): Probing the relationship between linker length, properties, and selective protein degradation” (Eur J Med Chem, 2023).
One block for each compound: values may come before it. The source made the active and inactive calls. The rule behind the calls is not given here.

Columns and labels:
MOLM-13 [1] = experiment: Anticancer activity against human MOLM-13 cells assessed as cell growth inhibition measured after 48 hrs by MTS assay; type: functional, cell-based; conditions: MOLM-13, 48 h
[2] = target: T1, Protein cereblon/Cyclin-dependent kinase 9 (Homo sapiens, UniProt P50750+Q96SW2); experiment: Protac activity at CRBN/CDK9 in human MV4-11 cells assessed as CDK9 degradation at 0.01 to 5 uM measured after 6 hrs by Western blot analysis; type: cell-based; conditions: dose 0.01-5 µM
Target sequence in this assay (P50750 whole entry, looked up): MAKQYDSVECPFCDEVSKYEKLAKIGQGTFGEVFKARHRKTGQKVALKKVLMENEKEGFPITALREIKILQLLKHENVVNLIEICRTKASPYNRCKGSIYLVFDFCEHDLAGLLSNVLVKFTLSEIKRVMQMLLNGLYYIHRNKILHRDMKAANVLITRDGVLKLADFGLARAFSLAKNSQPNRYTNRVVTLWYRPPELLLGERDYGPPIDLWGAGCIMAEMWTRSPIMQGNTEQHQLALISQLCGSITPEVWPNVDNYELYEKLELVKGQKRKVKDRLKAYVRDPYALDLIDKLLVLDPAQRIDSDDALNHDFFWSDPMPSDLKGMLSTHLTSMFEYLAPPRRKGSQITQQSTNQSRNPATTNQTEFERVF
Target sequence in this assay (Q96SW2 whole entry, looked up): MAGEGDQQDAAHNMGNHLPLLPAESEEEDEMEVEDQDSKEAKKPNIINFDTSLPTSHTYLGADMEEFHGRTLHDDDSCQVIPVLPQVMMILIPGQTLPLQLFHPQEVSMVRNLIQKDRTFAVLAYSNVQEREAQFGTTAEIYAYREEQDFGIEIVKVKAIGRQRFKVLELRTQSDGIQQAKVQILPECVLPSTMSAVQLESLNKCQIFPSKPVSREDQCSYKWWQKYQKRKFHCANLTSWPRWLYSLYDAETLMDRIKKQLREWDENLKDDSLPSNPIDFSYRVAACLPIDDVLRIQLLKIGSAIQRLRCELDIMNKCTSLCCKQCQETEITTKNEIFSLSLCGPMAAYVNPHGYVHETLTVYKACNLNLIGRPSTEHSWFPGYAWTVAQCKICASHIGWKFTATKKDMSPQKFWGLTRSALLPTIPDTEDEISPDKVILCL

[3] = target: T1, Protein cereblon/Cyclin-dependent kinase 9; experiment: Protac activity at CRBN/CDK9 in human MV4-11 cells assessed as reduction in MCL-1 level at 1 uM measured after 6 hrs by Western blot analysis; type: cell-based
Target sequence in this assay (P50750 whole entry, looked up): as the sequence (P50750 whole entry, looked up) above
Target sequence in this assay (Q96SW2 whole entry, looked up): as the sequence (Q96SW2 whole entry, looked up) above

[4] = target: T1, Protein cereblon/Cyclin-dependent kinase 9; experiment: Protac activity at CRBN/CDK9 in human MV4-11 cells assessed as CDK9 degradation at 1 uM measured after 6 hrs by Western blot analysis; type: cell-based
Target sequence in this assay (P50750 whole entry, looked up): as the sequence (P50750 whole entry, looked up) above
Target sequence in this assay (Q96SW2 whole entry, looked up): as the sequence (Q96SW2 whole entry, looked up) above

[5] = target: T1, Protein cereblon/Cyclin-dependent kinase 9; experiment: Protac activity at CRBN/CDK9 in human MV4-11 cells assessed as CDK9 degradation at 5 uM measured after 6 hrs by Western blot analysis; type: cell-based
Target sequence in this assay (P50750 whole entry, looked up): as the sequence (P50750 whole entry, looked up) above
Target sequence in this assay (Q96SW2 whole entry, looked up): as the sequence (Q96SW2 whole entry, looked up) above

[6] = target: T1, Protein cereblon/Cyclin-dependent kinase 9; experiment: Protac activity at CRBN/CDK9 in human MV4-11 cells assessed as reduction in c-Myc level upto 5 uM measured after 6 hrs by Western blot analysis; type: cell-based
Target sequence in this assay (P50750 whole entry, looked up): as the sequence (P50750 whole entry, looked up) above
Target sequence in this assay (Q96SW2 whole entry, looked up): as the sequence (Q96SW2 whole entry, looked up) above

[7] = target: T1, Protein cereblon/Cyclin-dependent kinase 9; experiment: Protac activity at CRBN/CDK9 isoform 55 in human MOLM-13 cells assessed assessed as protein degradation measured after 6 hrs by Western blot analysis relative to control; type: cell-based
Target sequence in this assay (P50750 whole entry, looked up): as the sequence (P50750 whole entry, looked up) above
Target sequence in this assay (Q96SW2 whole entry, looked up): as the sequence (Q96SW2 whole entry, looked up) above

[8] = target: T1, Protein cereblon/Cyclin-dependent kinase 9; experiment: Protac activity at CRBN/CDK9 isoform 42 in human MOLM-13 cells assessed assessed as protein degradation measured after 6 hrs by Western blot analysis; type: cell-based
Target sequence in this assay (P50750 whole entry): as the sequence (P50750 whole entry, looked up) above
Target sequence in this assay (Q96SW2 whole entry): as the sequence (Q96SW2 whole entry, looked up) above

[9] = target: T1, Protein cereblon/Cyclin-dependent kinase 9; experiment: Protac activity at CRBN/CDK9 isoform 55 in human MOLM-13 cells assessed assessed as protein degradation measured after 6 hrs by Western blot analysis; type: cell-based
Target sequence in this assay (P50750 whole entry): as the sequence (P50750 whole entry, looked up) above
Target sequence in this assay (Q96SW2 whole entry): as the sequence (Q96SW2 whole entry, looked up) above

MOLM-13 [10] = experiment: Effect on ikaros expression in human MOLM-13 cells at 0.1 uM measured after 6 hrs by Western blot analysis; type: functional, cell-based
MV4-11 = experiment: Anticancer activity against human MV4-11 cells assessed as cell growth inhibition for 6 hrs followed by compound washout measured after 24 hrs by Annexin V/Propidium iodide staining based flow cytometric analysis; type: functional
[11] = target: T1, Protein cereblon/Cyclin-dependent kinase 9; experiment: Protac activity at CRBN/CDK9 isoform 42 in human MOLM-13 cells assessed assessed as protein degradation measured after 6 hrs by Western blot analysis relative to control; type: cell-based
[12] = target: T1, Protein cereblon/Cyclin-dependent kinase 9; experiment: Protac activity at CRBN/CDK9 in human MV4-11 cells assessed as reduction in MCL-1 level upto 5 uM measured after 6 hrs by Western blot analysis; type: cell-based
[13] = target: T1, Protein cereblon/Cyclin-dependent kinase 9; experiment: Protac activity at CRBN/CDK9 in human MV4-11 cells assessed as protein degradation at 1 uM measured after 6 hrs in presence of […] by Western blot analysis; type: cell-based
B-lymphocyte = experiment: Induction of CDK2 degradation in B-lymphocyte (unknown origin); type: cell-based
[14] = target: T1, Protein cereblon/Cyclin-dependent kinase 9; experiment: Protac activity at CRBN/CDK9 in human MV4-11 cells assessed as protein degradation at 1 uM measured after 6 hrs in presence of pomalidomide by Western blot analysis; type: cell-based
MOLM-13 [15] = experiment: Effect on ikaros expression in human MOLM-13 cells upto 5 uM measured after 6 hrs by Western blot analysis; type: functional, cell-based
[16] = target: T1, Protein cereblon/Cyclin-dependent kinase 9; experiment: Protac activity at CRBN/CDK9 in human MV4-11 cells assessed as protein degradation at 1 uM treated for 6 hrs followed by compound washout measured after 48 hrs by Western blot analysis; type: cell-based
MOLM-13 [17] = experiment: Effect on aiolos expression in human MOLM-13 cells upto 5 uM measured after 6 hrs by Western blot analysis; type: functional, cell-based
[18] = target: Cyclin-dependent kinase 9 (Homo sapiens) (UniProt P50750); experiment: Induction of CDK9 degradation in human MOLM-13 cells assessed as fold change measured after 6 hrs by proteomics analysis; type: cell-based
Sequence of Cyclin-dependent kinase 9 (Homo sapiens) (P50750 whole entry): as the sequence (P50750 whole entry, looked up) above

[19] = target: T1, Protein cereblon/Cyclin-dependent kinase 9; experiment: Protac activity at CRBN/CDK9 in human MV4-11 cells assessed as protein degradation at 1 uM treated for 6 hrs followed by compound washout measured after 24 hrs by Western blot analysis; type: cell-based
T-lymphocyte = experiment: Induction of CDK2 degradation in T-lymphocyte (unknown origin); type: cell-based
[20] = target: T1, Protein cereblon/Cyclin-dependent kinase 9; experiment: Protac activity at CRBN/CDK9 in human MV4-11 cells assessed as protein degradation at 1 uM measured after 6 hrs in presence of bortezomib by Western blot analysis; type: cell-based
[21] = target: T1, Protein cereblon/Cyclin-dependent kinase 9; experiment: Protac activity at CRBN/CDK9 in human MV4-11 cells assessed as protein degradation at 1 uM measured after 6 hrs in presence of carfilzomib by Western blot analysis; type: cell-based

Structure (SMILES): O=C(CCCCCCCCCCNC(=O)CNc1cccc2c1C(=O)N(C1CCC(=O)NC1=O)C2=O)NCCCCCCCCCCC(=O)N1CCC(NC(=O)c2n[nH]cc2NC(=O)c2c(Cl)cccc2Cl)CC1 (stereo not given)
IC50 (MOLM-13 [1]): 28.4 µM

Structure (SMILES): O=C(COc1cccc2c1C(=O)N(C1CCC(=O)NC1=O)C2=O)NCCCCC(=O)N1CCC(NC(=O)c2n[nH]cc2NC(=O)c2c(Cl)cccc2Cl)CC1 (stereo not given)
IC50 (MOLM-13 [1]): 43.6 µM

Structure (SMILES): O=C(COc1cccc2c1C(=O)N(C1CCC(=O)NC1=O)C2=O)NCCC(=O)Nc1cccc(C(=O)NCCC(=O)N2CCC(NC(=O)c3n[nH]cc3NC(=O)c3c(Cl)cccc3Cl)CC2)c1 (stereo not given)
Activity [5]: inactive

Structure (SMILES): O=C1CCC(N2C(=O)c3cccc(OCC(=O)N4CCC(NC(=O)c5n[nH]cc5NC(=O)c5c(Cl)cccc5Cl)CC4)c3C2=O)C(=O)N1 (stereo not given)
IC50 (MOLM-13 [1]): 6.62 µM
Activity [4]: inactive

Structure (SMILES): O=C(CCCCCCCNC(=O)COc1cccc2c1C(=O)N(C1CCC(=O)NC1=O)C2=O)NCCCCCCCC(=O)N1CCC(NC(=O)c2n[nH]cc2NC(=O)c2c(Cl)cccc2Cl)CC1 (stereo not given)
IC50 (MOLM-13 [1]): 2.39 µM

Structure (SMILES): O=C(CCCCCNC(=O)COc1cccc2c1C(=O)N(C1CCC(=O)NC1=O)C2=O)NCCCCCC(=O)N1CCC(NC(=O)c2n[nH]cc2NC(=O)c2c(Cl)cccc2Cl)CC1 (stereo not given)
IC50 (MOLM-13 [1]): 11.7 µM

Structure (SMILES): O=C(CCCCNC(=O)CNc1cccc2c1C(=O)N(C1CCC(=O)NC1=O)C2=O)NCCCCC(=O)N1CCC(NC(=O)c2n[nH]cc2NC(=O)c2c(Cl)cccc2Cl)CC1 (stereo not given)
IC50 (MOLM-13 [1]): 29.7 µM
Activity [2]: inactive

Structure (SMILES): O=C(CCCCCCCNC(=O)CNc1cccc2c1C(=O)N(C1CCC(=O)NC1=O)C2=O)NCCCCCCCC(=O)N1CCC(NC(=O)c2n[nH]cc2NC(=O)c2c(Cl)cccc2Cl)CC1 (stereo not given)
IC50 (MOLM-13 [1]): 3.01 µM

Structure (SMILES): O=C(COc1cccc2c1C(=O)N(C1CCC(=O)NC1=O)C2=O)NCCCCCCCCCCC(=O)N1CCC(NC(=O)c2n[nH]cc2NC(=O)c2c(Cl)cccc2Cl)CC1 (stereo not given)
Activity [12]: Active
Activity [13]: inactive
Activity (B-lymphocyte): Active
Activity [14]: inactive
Activity (MOLM-13 [15]): inactive
Activity [3]: Active
Activity [16]: inactive
Emax [7]: 91.6%
IC50 (MOLM-13 [1]): 0.04 µM
DC50 [8]: 100 nM
DC50 [9]: 140 nM
Activity (MOLM-13 [17]): inactive
fold change (FC) [18]: > 2
Activity [19]: Active
Activity (T-lymphocyte): Active
Activity [20]: inactive
EC50 (MV4-11): 400 nM
Activity [4]: Active
Activity [21]: inactive
Emax [11]: 93.1%

Structure (SMILES): O=C(CCNC(=O)CNc1cccc2c1C(=O)N(C1CCC(=O)NC1=O)C2=O)NCCC(=O)NCCC(=O)N1CCC(NC(=O)c2n[nH]cc2NC(=O)c2c(Cl)cccc2Cl)CC1 (stereo not given)
Activity [5]: inactive

Structure (SMILES): O=C(CCCCCNC(=O)CNc1cccc2c1C(=O)N(C1CCC(=O)NC1=O)C2=O)NCCCCCC(=O)N1CCC(NC(=O)c2n[nH]cc2NC(=O)c2c(Cl)cccc2Cl)CC1 (stereo not given)
IC50 (MOLM-13 [1]): 13 µM

Structure (SMILES): O=C(COc1cccc2c1C(=O)N(C1CCC(=O)NC1=O)C2=O)NCCOCCOCCOCC(=O)N1CCC(NC(=O)c2n[nH]cc2NC(=O)c2c(Cl)cccc2Cl)CC1 (stereo not given)
IC50 (MOLM-13 [1]): 92.2 µM

Continued, in another order:

IC50 (MOLM-13 [1]): 47.4 µM
Activity [2]: inactive
Structure (SMILES): O=C(CCCCNC(=O)COc1cccc2c1C(=O)N(C1CCC(=O)NC1=O)C2=O)NCCCCC(=O)N1CCC(NC(=O)c2n[nH]cc2NC(=O)c2c(Cl)cccc2Cl)CC1 (stereo not given)

IC50 (MOLM-13 [1]): 83.2 µM
Structure (SMILES): O=C(CCCCCCCCCCCNC(=O)COc1cccc2c1C(=O)N(C1CCC(=O)NC1=O)C2=O)NCCCCCCCCCCCC(=O)N1CCC(NC(=O)c2n[nH]cc2NC(=O)c2c(Cl)cccc2Cl)CC1 (stereo not given)

Activity [3]: Active
IC50 (MOLM-13 [1]): 0.12 µM
Activity [4]: Active
Structure (SMILES): O=C(COc1cccc2c1C(=O)N(C1CCC(=O)NC1=O)C2=O)NCCCCCCCCCCCC(=O)N1CCC(NC(=O)c2n[nH]cc2NC(=O)c2c(Cl)cccc2Cl)CC1 (stereo not given)

IC50 (MOLM-13 [1]): 22.2 µM
Structure (SMILES): O=C(CCCCCCCCCCNC(=O)COc1cccc2c1C(=O)N(C1CCC(=O)NC1=O)C2=O)NCCCCCCCCCCC(=O)N1CCC(NC(=O)c2n[nH]cc2NC(=O)c2c(Cl)cccc2Cl)CC1 (stereo not given)

IC50 (MOLM-13 [1]): 2.22 µM
Structure (SMILES): O=C(CCCCCCCCCNC(=O)COc1cccc2c1C(=O)N(C1CCC(=O)NC1=O)C2=O)NCCCCCCCCCC(=O)N1CCC(NC(=O)c2n[nH]cc2NC(=O)c2c(Cl)cccc2Cl)CC1 (stereo not given)

IC50 (MOLM-13 [1]): 6.96 µM
Structure (SMILES): O=C(CCCCCCNC(=O)CNc1cccc2c1C(=O)N(C1CCC(=O)NC1=O)C2=O)NCCCCCCC(=O)N1CCC(NC(=O)c2n[nH]cc2NC(=O)c2c(Cl)cccc2Cl)CC1 (stereo not given)

IC50 (MOLM-13 [1]): 0.82 µM
Structure (SMILES): O=C(CCCCCCCCNC(=O)COc1cccc2c1C(=O)N(C1CCC(=O)NC1=O)C2=O)NCCCCCCCCC(=O)N1CCC(NC(=O)c2n[nH]cc2NC(=O)c2c(Cl)cccc2Cl)CC1 (stereo not given)

IC50 (MOLM-13 [1]): 2.7 µM
Structure (SMILES): O=C(COc1cccc2c1C(=O)N(C1CCC(=O)NC1=O)C2=O)NCCCCCC(=O)N1CCC(NC(=O)c2n[nH]cc2NC(=O)c2c(Cl)cccc2Cl)CC1 (stereo not given)

Activity [6]: Active
Emax [7]: 91.6%
IC50 (MOLM-13 [1]): 42.1 µM
DC50 [8]: 30 nM
DC50 [9]: 50 nM
EC50 (MV4-11): 200 nM
Activity [4]: Active
Emax [11]: 93.1%
Structure (SMILES): O=C(CNc1cccc2c1C(=O)N(C1CCC(=O)NC1=O)C2=O)NCCCCCCCCCCC(=O)N1CCC(NC(=O)c2n[nH]cc2NC(=O)c2c(Cl)cccc2Cl)CC1 (stereo not given)
Activity (MOLM-13 [10]): inactive

Activity [3]: Active
IC50 (MOLM-13 [1]): 0.21 µM
Activity [4]: Active
Structure (SMILES): O=C(COc1cccc2c1C(=O)N(C1CCC(=O)NC1=O)C2=O)NCCCCCCCC(=O)N1CCC(NC(=O)c2n[nH]cc2NC(=O)c2c(Cl)cccc2Cl)CC1 (stereo not given)

IC50 (MOLM-13 [1]): 9.43 µM
Structure (SMILES): O=C(CCCCCCCCCNC(=O)CNc1cccc2c1C(=O)N(C1CCC(=O)NC1=O)C2=O)NCCCCCCCCCC(=O)N1CCC(NC(=O)c2n[nH]cc2NC(=O)c2c(Cl)cccc2Cl)CC1 (stereo not given)

IC50 (MOLM-13 [1]): 39.7 µM
Activity [4]: inactive
Structure (SMILES): O=C(COc1cccc2c1C(=O)N(C1CCC(=O)NC1=O)C2=O)NCCC(=O)N1CCC(NC(=O)c2n[nH]cc2NC(=O)c2c(Cl)cccc2Cl)CC1 (stereo not given)

Activity [3]: inactive
IC50 (MOLM-13 [1]): 774 µM
Activity [4]: inactive
Structure (SMILES): O=C1CCC(N2C(=O)c3cccc(NCC(=O)N4CCC(NC(=O)c5n[nH]cc5NC(=O)c5c(Cl)cccc5Cl)CC4)c3C2=O)C(=O)N1 (stereo not given)

IC50 (MOLM-13 [1]): 1.4 µM
Structure (SMILES): O=C(CCCCCCCCNC(=O)CNc1cccc2c1C(=O)N(C1CCC(=O)NC1=O)C2=O)NCCCCCCCCC(=O)N1CCC(NC(=O)c2n[nH]cc2NC(=O)c2c(Cl)cccc2Cl)CC1 (stereo not given)

EC50 (MV4-11): 1100 nM
Structure (SMILES): O=C(NC1CCNCC1)c1n[nH]cc1NC(=O)c1c(Cl)cccc1Cl

IC50 (MOLM-13 [1]): 6.27 µM
Structure (SMILES): O=C(CCCCCCNC(=O)COc1cccc2c1C(=O)N(C1CCC(=O)NC1=O)C2=O)NCCCCCCC(=O)N1CCC(NC(=O)c2n[nH]cc2NC(=O)c2c(Cl)cccc2Cl)CC1 (stereo not given)
